Our source for the T/C values is PubChem BioAssay AID256 (DTP/NCI, 2004).

“And” between values parts separate entries of the source, which are not always exact repeats. Equal values may be shown once. Inconclusive results and toxic doses are left out.

This test relates to CD2F1 mice, L1210 leukemia ip, survival T/C. The test is described as follows: NCI In Vivo Anticancer Drug Screen. Data for tumor model L1210 Leukemia (intraperitoneal) in CD2F1 (CDF1) mice. Conditions: higher = longer survival. A digest of the protocol:
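Tumor-bearing mice (transplanted tumor) were split into treated and vehicle control groups, and the measured endpoint of each treated group was divided by that of its vehicle controls.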

Where [1] appears, read: endpoint: mean survival time, dose: 16.0 mg/kg/injection, schedule: Q01DX001 (ip), vehicle: saline.
[2] abbreviates: endpoint: mean survival time, dose: 100.0 mg/kg/injection, schedule: Q04DX003 (ip), vehicle: saline with Tween-80.

Turning to `O=CC(NC(=O)N(CCCl)N=O)C(O)C(O)C(O)CO` (configuration not stated), the T/C reads like this: (endpoint: mean survival time, dose: 0.94 mg/kg/injection, schedule: Q01DX009 (ip), vehicle: citric acid) 117 % of control; (endpoint: mean survival time, dose: 1.88 mg/kg/injection, schedule: Q01DX009 (ip), vehicle: citric acid) 162 % of control; (endpoint: mean survival time, dose: 3.75 mg/kg/injection, schedule: Q01DX009 (ip), vehicle: citric acid) 182 % of control and 242 % of control; (endpoint: mean survival time, dose: 3.75 mg/kg/injection, schedule: Q01DX009 (ip), vehicle: saline) 186 % of control; (endpoint: mean survival time, dose: 3.8 mg/kg/injection, schedule: Q01DX009 (ip), vehicle: water) 406 % of control; (endpoint: mean survival time, dose: 5.0 mg/kg/injection, schedule: Q04DX002 (ip), vehicle: saline) 173 % of control and 250 % of control. For the same compound, the T/C is 115 % of control (endpoint: mean survival time, dose: 7.0 mg/kg/injection, schedule: Q01DX001 (ip), vehicle: saline); 97 % of control (endpoint: mean survival time, dose: 7.5 mg/kg/injection, schedule: Q01DX009 (ip), vehicle: citric acid); 223 % of control (endpoint: mean survival time, dose: 7.5 mg/kg/injection, schedule: Q01DX009 (ip), vehicle: saline); 154 % of control (endpoint: mean survival time, dose: 7.5 mg/kg/injection, schedule: Q01DX009 (ip), vehicle: water); 267 % of control (endpoint: mean survival time, dose: 8.0 mg/kg/injection, schedule: Q01DX001 (ip), vehicle: water); 276 % of control and 289 % of control (endpoint: mean survival time, dose: 10.0 mg/kg/injection, schedule: Q04DX002 (ip), vehicle: saline). Besides, the T/C runs as follows: (endpoint: mean survival time, dose: 11.0 mg/kg/injection, schedule: Q01DX001 (ip), vehicle: saline) 151 % of control and 160 % of control; (endpoint: mean survival time, dose: 12.5 mg/kg/injection, schedule: Q01DX001 (ip), vehicle: saline) 158 % of control; (endpoint: mean survival time, dose: 15.0 mg/kg/injection, schedule: Q01DX009 (ip), vehicle: saline) 120 % of control; (endpoint: mean survival time, dose: 15.0 mg/kg/injection, schedule: Q01DX009 (ip), vehicle: water) 93 % of control; under setting [1], 336 % of control [middle of 4 runs]; (endpoint: mean survival time, dose: 16.0 mg/kg/injection, schedule: Q01DX001 (ip), vehicle: water) 369 % of control. Moreover, the T/C is 688 % of control (endpoint: mean survival time, dose: 20.0 mg/kg/injection, schedule: Q01DX001 (ip), vehicle: saline); 331 % of control and 335 % of control (endpoint: mean survival time, dose: 20.0 mg/kg/injection, schedule: Q04DX002 (ip), vehicle: saline); 535 % of control (endpoint: mean survival time, dose: 25.0 mg/kg/injection, schedule: Q01DX001 (ip), vehicle: saline); 857 % of control (endpoint: mean survival time, dose: 28.0 mg/kg/injection, schedule: Q01DX001 (ip), vehicle: saline); 372 % of control (endpoint: mean survival time, dose: 32.0 mg/kg/injection, schedule: Q01DX001 (ip), vehicle: water); 603 % of control [middle of 4 runs] (endpoint: mean survival time, dose: 36.0 mg/kg/injection, schedule: Q01DX001 (ip), vehicle: saline). Also, the T/C is, setting by setting: (endpoint: mean survival time, dose: 40.0 mg/kg/injection, schedule: Q04DX002 (ip), vehicle: saline) 92 % of control and 101 % of control; (endpoint: mean survival time, dose: 50.0 mg/kg/injection, schedule: Q01DX001 (ip), vehicle: saline) 202 % of control; (endpoint: mean survival time, dose: 54.0 mg/kg/injection, schedule: Q01DX001 (ip), vehicle: saline) 300 % of control and 548 % of control; (endpoint: median survival time, dose: 15.0 mg/kg/injection, schedule: Q01DX001 (ip), vehicle: saline) 152 % of control; (endpoint: median survival time, dose: 25.0 mg/kg/injection, schedule: Q01DX001 (ip), vehicle: saline) 181 % of control; (endpoint: median survival time, dose: 42.0 mg/kg/injection, schedule: Q01DX001 (ip), vehicle: saline) 406 % of control.

`Cc1cc(Br)cnc1Cl`: the T/C was 97 % of control (endpoint: mean survival time, dose: 100.0 mg/kg/injection, schedule: Q01DX001 (ip), vehicle: saline with Tween-80); 92 % of control under setting [2]; 106 % of control (endpoint: mean survival time, dose: 200.0 mg/kg/injection, schedule: Q01DX001 (ip), vehicle: saline with Tween-80); 97 % of control (endpoint: mean survival time, dose: 200.0 mg/kg/injection, schedule: Q04DX003 (ip), vehicle: saline with Tween-80); 101 % of control (endpoint: mean survival time, dose: 400.0 mg/kg/injection, schedule: Q01DX001 (ip), vehicle: saline with Tween-80); 96 % of control (endpoint: mean survival time, dose: 400.0 mg/kg/injection, schedule: Q04DX003 (ip), vehicle: saline with Tween-80).

On to `CCCCNc1c(C(=O)N2CCCCC2)cnc2c1cnn2CC`, for which the T/C runs as follows: (endpoint: mean survival time, dose: 100.0 mg/kg/injection, schedule: Q04DX003 (ip), vehicle: saline) 97 % of control; (endpoint: mean survival time, dose: 200.0 mg/kg/injection, schedule: Q04DX003 (ip), vehicle: saline) 101 % of control.

For `[B-][N+]12CN3CN(CN(C3)C1)C2`, for the setting “endpoint: mean survival time, dose: 75.0 mg/kg/injection, schedule: Q01DX001 (ip), vehicle: saline”, the T/C is 101 % of control.

Consider `OCc1ccc2c(n1)COC(c1ccccc1)O2` (configuration not stated), for which the T/C reads like this: (endpoint: mean survival time, dose: 100.0 mg/kg/injection, schedule: Q04DX002 (ip), vehicle: Klucel (hydroxypropylcellulose) (HPC)) 102 % of control; (endpoint: mean survival time, dose: 200.0 mg/kg/injection, schedule: Q04DX002 (ip), vehicle: Klucel (hydroxypropylcellulose) (HPC)) 94 % of control; (endpoint: mean survival time, dose: 400.0 mg/kg/injection, schedule: Q04DX002 (ip), vehicle: Klucel (hydroxypropylcellulose) (HPC)) 94 % of control.

Take `O=C(O)Cc1ccc(O)c(O)c1.[Pt].c1ccc([PH+](c2ccccc2)c2ccccc2)cc1.c1ccc([PH+](c2ccccc2)c2ccccc2)cc1`: the T/C by setting is: (endpoint: median survival time, dose: 10.0 mg/kg/injection, schedule: Q04DX003 (ip), vehicle: saline with Tween-80) 103 % of control; (endpoint: median survival time, dose: 20.0 mg/kg/injection, schedule: Q04DX003 (ip), vehicle: saline with Tween-80) 95 % of control; (endpoint: median survival time, dose: 40.0 mg/kg/injection, schedule: Q04DX003 (ip), vehicle: saline with Tween-80) 101 % of control; (endpoint: median survival time, dose: 50.0 mg/kg/injection, schedule: Q04DX003 (ip), vehicle: saline with Tween-80) 94 % of control; (endpoint: median survival time, dose: 80.0 mg/kg/injection, schedule: Q04DX003 (ip), vehicle: saline with Tween-80) 94 % of control; (endpoint: median survival time, dose: 100.0 mg/kg/injection, schedule: Q04DX003 (ip), vehicle: saline with Tween-80) 94 % of control. Also, the T/C is 97 % of control (endpoint: median survival time, dose: 200.0 mg/kg/injection, schedule: Q04DX003 (ip), vehicle: saline with Tween-80) and 89 % of control (endpoint: median survival time, dose: 400.0 mg/kg/injection, schedule: Q04DX003 (ip), vehicle: saline with Tween-80).

`N#CC(C#N)=Cc1ccc(Cl)cc1`: the T/C was 89 % of control (endpoint: mean survival time, dose: 25.0 mg/kg/injection, schedule: Q04DX003 (ip), vehicle: saline with Tween-80); 101 % of control (endpoint: mean survival time, dose: 50.0 mg/kg/injection, schedule: Q04DX003 (ip), vehicle: saline with Tween-80); 86 % of control and 98 % of control under setting [2].

Consider `CC1(C)OC2C(COC(=O)CI)OC(n3ccc(=O)[nH]c3=O)C2O1` (configuration not stated), for which the T/C (endpoint: median survival time, dose: 25.0 mg/kg/injection, schedule: Q01DX005 (ip), vehicle: Klucel (hydroxypropylcellulose) (HPC)) is 102 % of control and the T/C (endpoint: median survival time, dose: 50.0 mg/kg/injection, schedule: Q01DX005 (ip), vehicle: Klucel (hydroxypropylcellulose) (HPC)) is 98 % of control.

As to `c1ccc(CC23CCCCC2N3)cc1` (configuration not stated), the T/C (endpoint: mean survival time, dose: 100.0 mg/kg/injection, schedule: Q01DX001 (ip), vehicle: saline sonified) is 96 % of control and the T/C (endpoint: mean survival time, dose: 200.0 mg/kg/injection, schedule: Q01DX001 (ip), vehicle: saline sonified) was 94 % of control.

`O/N=c1/ccn(O)c2ccccc12`: the T/C (endpoint: mean survival time, dose: 0.25 mg/kg/injection, schedule: Q03HX024 (ip), vehicle: saline) was 104 % of control; the T/C (endpoint: mean survival time, dose: 0.5 mg/kg/injection, schedule: Q03HX008 (ip), vehicle: saline) is 112 % of control; the T/C (endpoint: mean survival time, dose: 0.5 mg/kg/injection, schedule: Q03HX016 (ip), vehicle: saline) was 104 % of control; the T/C (endpoint: mean survival time, dose: 0.5 mg/kg/injection, schedule: Q03HX024 (ip), vehicle: saline) was 116 % of control; the T/C (endpoint: mean survival time, dose: 1.0 mg/kg/injection, schedule: Q01DX009 (ip), vehicle: saline) was 123 % of control; the T/C (endpoint: mean survival time, dose: 1.0 mg/kg/injection, schedule: Q03HX008 (ip), vehicle: saline) is 113 % of control. The T/C by setting is: (endpoint: mean survival time, dose: 1.0 mg/kg/injection, schedule: Q03HX016 (ip), vehicle: saline) 113 % of control; (endpoint: mean survival time, dose: 2.0 mg/kg/injection, schedule: Q03HX024 (ip), vehicle: saline) 123 % of control; under setting [1], 124 % of control; (endpoint: mean survival time, dose: 16.0 mg/kg/injection, schedule: Q04DX003 (ip), vehicle: saline) 96 % of control; (endpoint: mean survival time, dose: 16.0 mg/kg/injection, schedule: Q08DX002 (ip), vehicle: saline) 109 % of control; (endpoint: mean survival time, dose: 32.0 mg/kg/injection, schedule: Q08DX002 (ip), vehicle: saline) 88 % of control.

Regarding `O=C1c2ccccc2C(=O)N1OC1CCCCO1` (configuration not stated), the T/C is 92 % of control (endpoint: mean survival time, dose: 100.0 mg/kg/injection, schedule: Q04DX003 (ip), vehicle: Klucel (hydroxypropylcellulose) (HPC)); 102 % of control (endpoint: mean survival time, dose: 200.0 mg/kg/injection, schedule: Q04DX003 (ip), vehicle: Klucel (hydroxypropylcellulose) (HPC)); 94 % of control (endpoint: mean survival time, dose: 400.0 mg/kg/injection, schedule: Q04DX003 (ip), vehicle: Klucel (hydroxypropylcellulose) (HPC)).
